Key:
[1] = test system: TCC97-7 bladder cancer cells carrying the Ser249Cys mutation of FGF-R3; assay: Reduction of intracellular ATP content of TCC97-7 cells in serum-supplemented medium (Cell Titer-Glo); format: cell-based; details: 72 h, TCC97-7 cells cultured in the presence of serum, after 3 days, read-out: Inhibition of the amount of intracellular ATP (%)
Protocol: Evaluation of the Capacity of FGF-R Antagonists to Reduce the ATP Content of TCC97-7 Bladder Cancer Cells Carrying the Ser249Cys Mutation of FGF-R3, Cultured in a Serum-Supplemented Medium
To do this, 3000 cells are seeded in 50 μl of complete medium (Ham-F/12, 1% FCS, 2 mM glutamine, non-essential amino acids, sodium pyruvate, 1% insulin/transferrin/selenium, hydrocortisone). 16 hours later, 50 μl of the various compounds are added at 2 and 20 μM after dilution in complete culture medium in order to obtain final concentrations of 1 and 10 μM. After 3 days, the ATP content of the cells is measured using the Cell Titer-Glo® Luminescent Cell Viability Assay kit (Promega, France) according to the supplier's recommendations. The percentage inhibition of the amount of intracellular ATP is calculated by considering the ATP content of the cells cultured in the absence of antagonist to be 0% inhibition. 100% inhibition would correspond to a well in which the ATP content is zero.
Thus, compounds 1 to 24 are capable of inhibiting the amount of intracellular ATP in TCC97-7 cells by more than 20% at the dose of 1 or 10 μM (Table No. 3).

[2] = test system: bladder cancer tumour cells of TCC97-7 type carrying the Ser249Cys mutation of FGF receptor 3; assay: Inhibition of serum-induced proliferation of TCC97-7 bladder cancer cells (cell-covered surface area, Incucyte); format: cell-based; details: 72 h, TCC97-7 cell line in the presence of serum, after 3 days
Protocol: Evaluation of the Capacity of the FGF-R Antagonists to Inhibit Serum-Induced Proliferation of Bladder Cancer Tumour Cells of TCC97-7 Type Carrying the Ser249Cys Mutation of FGF Receptor 3
To do this, 2000 cells are seeded in the morning in 50 μl of complete medium (Ham-F/12, 1% FCS, 2 mM glutamine, non-essential amino acids, sodium pyruvate, 1% insulin/transferrin/selenium, hydrocortisone). In the evening, 50 μl of the various compounds are added at 2 or 20 μM after dilution in complete culture medium in order to obtain final concentrations of 1 or 10 μM. After 3 days, cell proliferation is evaluated by measuring the cell-covered surface area of a well of a 96 well plate. This surface area is measured using an Incucyte apparatus (Essen BioScience). The percentage inhibition of the cell proliferation is calculated by considering the surface area occupied by the TCC97-7 cells cultured in the absence of FGF-R antagonists to be 0% inhibition. 100% inhibition would correspond to a well no longer containing cells.
Thus, compounds 1 to 24 are capable of inhibiting TCC97-7 cell proliferation by more than 20% at the dose of 1 or 10 μM. (Table No. 2).

melting point	SMILES	inhibition at 1 µM [1]	inhibition at 10 µM [1]	inhibition at 1 µM [2]	inhibition at 10 µM [2]
233 °C	COc1cccc(-c2n[nH]c3nc(-c4ccc(N)c(C#N)c4)cc(C(F)F)c23)c1 [compound 12, 2-Amino-5-[4-difluoromethyl-3-(3-methoxyphenyl)-1H-pyrazolo[3,4-b]pyridin-6-yl]benzonitrile]	23.8%	75.8%	12.1%	95.8%
380 °C	O=c1[nH]c2ccc(-c3cc(C(F)(F)F)c4c(-c5ccccc5)n[nH]c4n3)cc2[nH]1 [compound 15, 5-(3-Phenyl-4-trifluoromethyl-1H-pyrazolo[3,4-b]pyridin-6-yl)-1,3-dihydrobenzoimidazol-2-one]	-11%	19%	-3%	29%

From patent US9572799B2, “Pyrazolopyridine derivatives for use in the treatment of bladder cancer” (SANOFI, priority 2013, dated 2017)
